Assay results taken from PubChem BioAssay (NCI).
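Each compound was tested at five concentrations against cells in 96-well plates for 48 hours. GI50: concentration for 50% inhibition of growth. The concentration for full growth arrest is given as TGI.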

Key:
Assay in all cases: NCI tumour cell line growth inhibition, 48 h; in the data active means GI50 below about 0.43 µM; inactive means the rest
[1] = test system: RXF 393 renal
[2] = test system: HOP-62 NSCLC
[3] = test system: NCI-H226 lung
[4] = test system: SN12C renal
[5] = test system: UO-31 renal
[6] = test system: HS 578T breast
[7] = test system: ACHN renal
[8] = test system: PC-3 prostate
[9] = test system: U251 CNS
[10] = test system: SK-MEL-28 melanoma
[11] = test system: HCT-116 colon
[12] = test system: SNB-19 CNS
[13] = test system: RPMI-8226 leukemia
[14] = test system: MALME-3M melanoma
[15] = test system: HCC-2998 colon
[16] = test system: COLO 205 colon
[17] = test system: NCI-H522 lung
[18] = test system: M14 melanoma
[19] = test system: CAKI-1 renal
[20] = test system: T-47D breast
[21] = test system: BT-549 breast
[22] = test system: HL-60(TB) leukemia
[23] = test system: TK-10 renal
[24] = test system: LOX IMVI melanoma
[25] = test system: A498 renal
[26] = test system: MDA-MB-435
[27] = test system: MCF7 breast
[28] = test system: NCI-H460 lung
[29] = test system: IGROV1 ovarian
[30] = test system: HOP-92 NSCLC
[31] = test system: SK-OV-3 ovarian
[32] = test system: A549 NSCLC
[33] = test system: SK-MEL-5 melanoma
[34] = test system: SNB-75 CNS
[35] = test system: DU-145 prostate
[36] = test system: OVCAR-5 ovarian
[37] = test system: KM12 colon
[38] = test system: EKVX NSCLC
[39] = test system: NCI/ADR-RES ovarian
[40] = test system: SK-MEL-2 melanoma
[41] = test system: OVCAR-3 ovarian
[42] = test system: CCRF-CEM leukemia
[43] = test system: SW-620 colon
[44] = test system: NCI-H23 lung
[45] = test system: 786-0 renal
[46] = test system: SF-539 CNS
[47] = test system: UACC-62 melanoma
[48] = test system: HT29 colon
[49] = test system: MDA-MB-231 breast
[50] = test system: HCT-15 colon
[51] = test system: SF-268 CNS
[52] = test system: MOLT-4 leukemia
[53] = test system: K-562 leukemia
[54] = test system: SF-295 CNS
[55] = test system: SR leukemia
[56] = test system: OVCAR-8 ovarian
[57] = test system: UACC-257 melanoma
[58] = test system: OVCAR-4 ovarian

CN(C)c1cc2c(Nc3ccc4c(cnn4Cc4ccccc4)c3)ncnc2cn1
> 20.8 µM: TGI [1]
> 23.1 µM: TGI [54]
> 18.4 µM: TGI [5]
> 20 µM: TGI [37]
19.9 µM: TGI [47]
> 8.76 µM: TGI [38]
inactive: GI50 [1] 8.3 µM | GI50 [2] 8.35 µM | GI50 [3] 15.9 µM | GI50 [4] 12.1 µM | GI50 [5] 4.06 µM | GI50 [6] 16.6 µM | GI50 [7] 2.1 µM | GI50 [8] 10 µM | GI50 [9] 7.8 µM | GI50 [10] 20 µM | GI50 [11] 9.23 µM | GI50 [12] 12.7 µM | GI50 [13] 10.9 µM | GI50 [14] 12.9 µM | GI50 [15] 10.8 µM | GI50 [16] 10.1 µM | GI50 [17] 1.82 µM | GI50 [18] 14.8 µM | GI50 [20] 3.38 µM | GI50 [21] 10.7 µM | GI50 [22] 8.93 µM | GI50 [23] 0.741 µM | GI50 [24] 8.32 µM | GI50 [25] 16.7 µM | GI50 [26] 10.5 µM | GI50 [27] 16.5 µM | GI50 [28] 10.3 µM | GI50 [29] 5.38 µM | GI50 [30] 8.82 µM | GI50 [32] 7.49 µM | GI50 [33] 7.61 µM | GI50 [34] > 22 µM | GI50 [35] 5.54 µM | GI50 [36] 9.2 µM | GI50 [37] 7.29 µM | GI50 [39] 5.85 µM | GI50 [40] 7.5 µM | GI50 [41] 6.43 µM | GI50 [42] 10.3 µM | GI50 [43] 15.3 µM | GI50 [44] 9.52 µM | GI50 [45] 8.76 µM | GI50 [46] 10.1 µM | GI50 [47] 6.96 µM | GI50 [48] 8.98 µM | GI50 [49] 6.1 µM | GI50 [50] 9.6 µM | GI50 [51] > 24.1 µM | GI50 [52] 9.47 µM | GI50 [53] 9.66 µM | GI50 [54] 7.58 µM | GI50 [55] 12.8 µM | GI50 [56] 9.13 µM | GI50 [57] 13.2 µM | GI50 [58] 14.2 µM
> 23.2 µM: TGI [23]
> 23.3 µM: TGI [29]
> 21.5 µM: TGI [19]
> 20.5 µM: TGI [20] | TGI [33]
20.9 µM: TGI [40]
23.8 µM: TGI [22]
24.4 µM: TGI [9]
active: GI50 [19] 0.299 µM | GI50 [31] 0.104 µM | GI50 [38] 0.108 µM
> 23.9 µM: TGI [2]
> 25 µM: TGI [3] | TGI [4] | TGI [6] | TGI [7] | TGI [8] | TGI [10] | TGI [11] | TGI [12] | TGI [13] | TGI [14] | TGI [15] | TGI [16] | TGI [17] | TGI [18] | TGI [21] | TGI [24] | TGI [25] | TGI [26] | TGI [27] | TGI [28] | TGI [30] | TGI [31] | TGI [32] | TGI [34] | TGI [35] | TGI [36] | TGI [39] | TGI [41] | TGI [42] | TGI [43] | TGI [44] | TGI [45] | TGI [46] | TGI [48] | TGI [49] | TGI [50] | TGI [51] | TGI [52] | TGI [53] | TGI [55] | TGI [56] | TGI [57] | TGI [58]
